Read-outs that look alike come from different tables or passages of the source.
Assays:
infantile rabbit uteri = assay: McPhail test, progestagenic and antiprogestagenic activities in infantile rabbit uteri; format: in vivo
Text: (§1) The HE of 97.3% is significant (Table 5).
Progestagenic and antiprogestagenic activities of STS 593
in infantile rabbit uteri as shown by the McPhail test

infantile male rats = assay: Androgenic, anabolic and antiandrogenic effects in infantile male rats; format: in vivo, rat; conditions: orally over 6 days, total doses 0.75-3.0 mg/animal
Text: as §1

[1] = in vivo
Text: In this context the compound is better than mestranol by a factor of 6.

ovariectomized mice = assay: Allen-Doisy test in ovariectomized mice (estrogenic properties); format: in vivo, mouse
Text: (§2) STS 593 was weaker than ethynylestradiol by a factor of 9 in its estrogenic properties as shown by the Allen-Doisy test in ovariectomized mice. The compound was only 7% as active as the standard mestranol in producing a uterine response in infantile rats (Table 3), whereas the antiestrogenic properties exceeded those of clomiphene citrate by a factor of 1.4.

[2] = system: mice (uterine fresh weight); assay: Uterine activity in mice (dose for doubling uterine fresh weight); format: in vivo, mouse; conditions: p.o.
Text: (§3) Uterine and contraceptive activities produced by selected
(§4) 14,15-methylene-17-ol-estratrienes in mice

rats (testicular mass) = assay: Antigonadotrophic activity (testicular mass) in rats; format: in vivo, rat; conditions: for ED50: Rattus norvegicus; for IE %: testicular mass
Description: The effective dose for the HE50 was close to 0.65 mg/kg of body-wt./5 d, while mestranol has the same effect at a dose as low as 0.15 mg/kg of body-wt./5 d.

inseminated rats = assay: Antinidation / Nidation Inhibition Test in inseminated rats treated on the 1st day of gestation; format: in vivo, rat; conditions: for ED50 / ED5 / ED95: Rattus norvegicus, po
Text: The favorable biological properties of the named compounds of the process according to the invention are to be further illustrated and described in the example of 3-methoxy-14β-15β-methylene-estra-1,3,5(10)-triene-17β-ol (test designation STS 593).
(§5) Gestation and nidation inhibition expressed in % were used as parameters for antifertility effects. GHE1 (gestation inhibitory effect) and IHE1 (nidation inhibitory effect) were related to the inhibition of the total of gestations or nidations, GHE2 and IHE2 were related to the inhibition of normal gestations or nidations within each group. […] GHE1, GHE2, IHE1 and IHE2 were calculated using the following formulae: [formula] n=number of females inseminated in each group v=test group
k=control group (sesame oil)
x=number of all gestations (GHE1) and of normal gestations (GHE2) p. group, respectively
(§6) f=average number (x) of all implantations (IHE1) and of normal implantations (IHE2) p. female inseminated within a group, respectively.
The comparison of the relative incidence of gestations was performed by the Ryan test, the comparison of the number of implantations by the Dunn test.
(§7) For GHE1 and GHE2 the ED (effective doses) for the HE (inhibitory effect) 0%, 50%, and 95% as far as possible were determined by means of the probit analysis. The ED50 for IHE1 and IHE2 were determined graphically.

[3] = General statement on antifertility effects and separation from uterine, estrogenic and antigonadotrophic activities; format: in vivo; conditions: compared to mestranol
[4] = Antiestrogenic properties; conditions: in vivo
Text: as §2

mice = assay: Contraceptive activity in mice, single application on 1st day of gestation; format: in vivo, mouse; conditions: mice, 10 mg/kg p.o., single application
Description: as §5, §6, §7, §3, §4

[5] = 10 mg/kg p.o. + progesterone 4 mg/animal s.c., over 4 days, n=5
[6] = total dose 0.25 mg/kg of body-wt. p.o., n=9
[7] = total dose 0.50 mg/kg of body-wt. p.o., n=10
[8] = total dose 1.00 mg/kg of body-wt. p.o., n=10
[9] = 1st trial 1975, 0.1 mg/kg p.o., n=12
[10] = 1st trial 1975, 0.3 mg/kg p.o., n=12
[11] = 1st trial 1975, 0.9 mg/kg p.o., n=12
[12] = 2nd trial 1978, 0.08 mg/kg p.o., n=10
[13] = 2nd trial 1978, 0.16 mg/kg p.o., n=10
[14] = 2nd trial 1978, 0.32 mg/kg p.o., n=10
[15] = 2nd trial 1978, 0.64 mg/kg p.o., n=10
[16] = 2nd trial 1978, 1.28 mg/kg p.o., n=10

In the case of `COc1ccc2c(c1)CC[C@@H]1[C@@H]2CC[C@]2(C)[C@@H](O)C[C@H]3C[C@@]312` [STS 593, 3-methoxy-14β,15β-methylene-estra-1,3,5(10)-triene-17β-ol], the “McPhail index (-x)” value (infantile rabbit uteri; 2 mg/kg p.o. + progesterone 4 mg/animal s.c., over 4 days, n=6) is reported as 3.8, the “McPhail index (-x)” value (infantile rabbit uteri; 2 mg/kg p.o. alone, total dose over 4 days, n=5) is reported as 0 and the HE % (infantile rabbit uteri; [5]) is reported as 26.7%. For the same compound, the “McPhail index (-x)” value (infantile rabbit uteri; [5]) was 2.2, the “McPhail index (-x)” value (infantile rabbit uteri; 50 mg/kg p.o. + progesterone 4 mg/animal s.c., over 4 days, n=6) was 0.08 and the HE % (infantile rabbit uteri; 50 mg/kg p.o. + progesterone 4 mg/animal s.c., over 4 days, significant) was 97.3%. For the same compound, the “Antiprogestagenic effects (in words)” value (infantile rabbit uteri; rabbit, in vivo) was “produces antiestrogenic and antiprogestagenic effects”, the Progestagenic activity (infantile rabbit uteri; rabbit, in vivo) was “lacking in progestagenic activity” and the Antiprogestagenic properties (infantile rabbit uteri; rabbits, oral, 50 mg/kg) was “showed antiprogestanenic properties”. The Anabolic effects (infantile male rats) was “did not show any”, the Androgenic effects (infantile male rats) was “did not show any” and the Antiandrogenic effects (infantile male rats) was “did not show any”. The “Separation of contraceptive activity and undesirable post implantation fetal damage (in words)” value [1] was “favorable separation”, the “Separation of contraceptive activity and undesirable post implantation fetal damage: factor better than mestranol” value [1] was 6 factor and the “Estrogenic properties: factor weaker than ethynylestradiol” value (ovariectomized mice) was 9 factor. The “Total dose for doubling uterine fresh weight” value [2] was 0.45 μg/animal, the ED50 (rats (testicular mass); 120 h, rats, read-out: Effective dose for the HE50, antigonadotrophic) was ~0.65 mg/kg and the ED50 (rats (testicular mass); po, antigonadotrophic, total dose p.o., read-out: HE 50 (the source's name)) was 0.65 mg/kg. The “Antigonadotrophic effect compared to mestranol” value (rats (testicular mass); rats) was “four times weaker than mestranol”, the IE % (rats (testicular mass); [6]) was 18.1% and the IE % (rats (testicular mass); [7]) was 39.6%. For the same compound, the IE % (rats (testicular mass); [8]) was 68.9%, the “Testicular mass (-x ± s-x)” value (rats (testicular mass); [6]) was 312.4 ± 42.5 mg and the “Testicular mass (-x ± s-x)” value (rats (testicular mass); [7]) was 272.3 ± 37.7 mg. The “Testicular mass (-x ± s-x)” value (rats (testicular mass); [8]) was 217.6 ± 24.2 mg, the “Female rats pregnant of n, normal” value (inseminated rats; [9]) was 10 and the “Female rats pregnant of n, total” value (inseminated rats; [9]) was 10. It also gave a GHE1 (inseminated rats; [9]) of 16.7%, a GHE2 (inseminated rats; [9]) of 16.7% and an IHE1 (inseminated rats; [9]) of 30.0%. For the same compound, the IHE2 (inseminated rats; [9]) was 34.7%, the “Implantations per female (-x), normal” value (inseminated rats; [9]) was 8.2 and the “Implantations per female (-x), total” value (inseminated rats; [9]) was 8.8. For the same compound, the “Female rats pregnant of n, normal” value (inseminated rats; [10]) was 5, the “Female rats pregnant of n, total” value (inseminated rats; [10]) was 8 and the GHE1 (inseminated rats; [10]) was 33.3%. For the same compound, the GHE2 (inseminated rats; [10]) was 58.3%, the IHE1 (inseminated rats; [10]) was 70.0% and the IHE2 (inseminated rats; [10]) was 72.7%. For the same compound, the “Implantations per female (-x), normal” value (inseminated rats; [10]) was 3.4, the “Implantations per female (-x), total” value (inseminated rats; [10]) was 3.8 and the “Female rats pregnant of n, normal” value (inseminated rats; [11]) was 3. For the same compound, the “Female rats pregnant of n, total” value (inseminated rats; [11]) was 6, the GHE1 (inseminated rats; [11]) was 50.0% and the GHE2 (inseminated rats; [11]) was 75.0%. For the same compound, the IHE1 (inseminated rats; [11]) was 86.7%, the IHE2 (inseminated rats; [11]) was 94.7% and the “Implantations per female (-x), normal” value (inseminated rats; [11]) was 0.7. The “Implantations per female (-x), total” value (inseminated rats; [11]) was 1.7, the “Female rats pregnant of n, normal” value (inseminated rats; [12]) was 9 and the “Female rats pregnant of n, total” value (inseminated rats; [12]) was 9. The GHE1 (inseminated rats; [12]) was 10%, the GHE2 (inseminated rats; [12]) was 10% and the IHE1 (inseminated rats; [12]) was 18.5%. The IHE2 (inseminated rats; [12]) was 19.2%, the “Implantations per female (-x), normal” value (inseminated rats; [12]) was 10.5 and the “Implantations per female (-x), total” value (inseminated rats; [12]) was 10.6. The “Female rats pregnant of n, normal” value (inseminated rats; [13]) was 2, the “Female rats pregnant of n, total” value (inseminated rats; [13]) was 10 and the GHE1 (inseminated rats; [13]) was 0%. It also gave a GHE2 (inseminated rats; [13]) of 80%, an IHE1 (inseminated rats; [13]) of 32.3% and an IHE2 (inseminated rats; [13]) of 82.3%. The “Implantations per female (-x), normal” value (inseminated rats; [13]) was 2.3, the “Implantations per female (-x), total” value (inseminated rats; [13]) was 8.8 and the “Female rats pregnant of n, normal” value (inseminated rats; [14]) was 3. For the same compound, the “Female rats pregnant of n, total” value (inseminated rats; [14]) was 5, the GHE1 (inseminated rats; [14]) was 50% and the GHE2 (inseminated rats; [14]) was 70%. The IHE1 (inseminated rats; [14]) was 74.6%, the IHE2 (inseminated rats; [14]) was 86.1% and the “Implantations per female (-x), normal” value (inseminated rats; [14]) was 1.8. For the same compound, the “Implantations per female (-x), total” value (inseminated rats; [14]) was 3.3, the “Female rats pregnant of n, normal” value (inseminated rats; [15]) was 0 and the “Female rats pregnant of n, total” value (inseminated rats; [15]) was 4. For the same compound, the GHE1 (inseminated rats; [15]) was 60%, the GHE2 (inseminated rats; [15]) was 100% and the IHE1 (inseminated rats; [15]) was 87.7%. For the same compound, the IHE2 (inseminated rats; [15]) was 100%, the “Implantations per female (-x), normal” value (inseminated rats; [15]) was 0 and the “Implantations per female (-x), total” value (inseminated rats; [15]) was 1.6. For the same compound, the “Female rats pregnant of n, normal” value (inseminated rats; [16]) was 0, the “Female rats pregnant of n, total” value (inseminated rats; [16]) was 2 and the GHE1 (inseminated rats; [16]) was 80%. It also gave a GHE2 (inseminated rats; [16]) of 100%, an IHE1 (inseminated rats; [16]) of 88.5% and an IHE2 (inseminated rats; [16]) of 100%. The “Implantations per female (-x), normal” value (inseminated rats; [16]) was 0, the “Implantations per female (-x), total” value (inseminated rats; [16]) was 1.5 and the ED50 (inseminated rats; according to trial No. 1, read-out: ED50 for IHE1) was 0.175 mg/kg. The ED50 (inseminated rats; according to trial No. 1, read-out: ED50 for IHE2) was 0.155 mg/kg, the ED50 (inseminated rats; determined graphically, STS 593 from trial No. 2, read-out: ED 50 for IHE1) was 0.22 mg/kg and the ED50 (inseminated rats; determined graphically, STS 593 from trial No. 2, read-out: ED 50 for IHE2) was 0.112 mg/kg. For the same compound, the ED5 (inseminated rats; probit analysis, STS 593 from trial No. 2, read-out: ED 05 for GHE1) was 0.078 mg/kg, the ED5 (inseminated rats; probit analysis, STS 593 from trial No. 2, read-out: ED 05 for GHE2) was 0.044 mg/kg and the ED50 (inseminated rats; probit analysis, STS 593 from trial No. 2, read-out: ED 50 for GHE1) was 0.474 mg/kg. The ED50 (inseminated rats; probit analysis, STS 593 from trial No. 2, read-out: ED 50 for GHE2) was 0.147 mg/kg, the ED95 (inseminated rats; probit analysis, STS 593 from trial No. 2, read-out: ED 95 for GHE1) was 2.59 mg/kg and the ED95 (inseminated rats; probit analysis, STS 593 from trial No. 2, read-out: ED 95 for GHE2) was 0.454 mg/kg. For the same compound, the “Contraceptive activity related to IHE1, compared to ethynylestradiol” value (inseminated rats; female rat) was “nearly double the activity of ethynylestradiol”, the “Contraceptive activity related to IHE1, compared to mestranol” value (inseminated rats; female rat) was “in the range of that of mestranol” and the “Separation of contraceptive properties and undesirable (estrogenic, antigonadotrophic, progestagenic) side-effects vs mestranol” value [3] was “more favorable separation”. For the same compound, the “Antiestrogenic properties: factor exceeding clomiphene citrate” value [4] was 1.4 factor, the “Antiestrogenic properties (in words)” value ([4]; listed as 3-methoxy-14β,15β-methylene-estra-1,3,5(10)-triene-17β-ol) was “marked antiestrogenic properties” and the “Antiestrogenic properties (in words)” value ([4]; listed as 3-methoxy-14β-15β-methylene-estra-1,3,5(10)-triene-17β-ol) was “produces antiestrogenic and antiprogestagenic effects”. The “THE, % after single application of 10 mg/kg of body-wt. on the 1st day of gestation p.o.” value (mice) was 80.2%.
